These results are taken from PubChem BioAssay (NCI).

Some test systems named below: CCRF-CEM leukemia; COLO 205 colon; HOP-92 NSCLC; K-562 leukemia; KM12 colon; MALME-3M melanoma; NCI-H23 lung; OVCAR-4 ovarian; RXF 393 renal; SF-295 CNS; SK-MEL-2 melanoma; SN12C renal; U251 CNS; UACC-62 melanoma; T-47D breast; RPMI-8226 leukemia; PC-3 prostate.
Common to all, as to assay: NCI anticancer screen, dose series, 48 h

Structures are written as SMILES.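 Following 48 hours of exposure in 96-well plates, responses at five concentrations were used to interpolate endpoints linearly. Definition used: TGI = concentration required for complete inhibition of growth.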 A value given as a limit tells only on which side of the number the result lay.

Regarding `COc1cccc2nc3cc(C)c(C)cc3nc12`, the TGI in the experiment on CCRF-CEM leukemia, in the experiment with COLO 205 colon, in the experiment on HOP-92 NSCLC, in the experiment on K-562 leukemia, with KM12 colon and with MALME-3M melanoma was over 100 µM each time. For the same compound, the TGI with NCI-H23 lung, with OVCAR-4 ovarian, in the experiment with RXF 393 renal, in the experiment with SF-295 CNS, in the experiment on SK-MEL-2 melanoma and with SN12C renal was over 100 µM in each case. For the same compound, the TGI in the experiment on U251 CNS and in the experiment on UACC-62 melanoma was over 100 µM in each case.

`CC(C)CCc1n[nH]c(=O)n1/N=C\c1ccccc1`: the TGI in the experiment with CCRF-CEM leukemia, in the experiment with COLO 205 colon, with HOP-92 NSCLC, in the experiment on K-562 leukemia, with KM12 colon and in the experiment on MALME-3M melanoma was over 100 µM each time. Also, the TGI with NCI-H23 lung, with OVCAR-4 ovarian, in the experiment with RXF 393 renal, in the experiment with SF-295 CNS, in the experiment on SK-MEL-2 melanoma and with SN12C renal was over 100 µM each time. Moreover, the TGI with T-47D breast, with U251 CNS and in the experiment on UACC-62 melanoma was over 100 µM each time.

As for `CC(C)C12C=CC(C)(CC1)n1c(=O)c3cc4ccccc4cc3c(=O)n12` (stereo not given), the TGI in the experiment on CCRF-CEM leukemia, in the experiment with COLO 205 colon, in the experiment with HOP-92 NSCLC, with K-562 leukemia, in the experiment on KM12 colon and in the experiment with MALME-3M melanoma was over 100 µM in each case. For the same compound, the TGI in the experiment on NCI-H23 lung, with OVCAR-4 ovarian, with RPMI-8226 leukemia, in the experiment with RXF 393 renal, in the experiment with SF-295 CNS and with SK-MEL-2 melanoma was over 100 µM each time. Moreover, the TGI in the experiment with SN12C renal and in the experiment with U251 CNS was over 100 µM throughout.

Take `CS/C(C)=N/OC(=O)NCCCCNc1ccc(N=[N+]=[N-])cc1`: the TGI in the experiment on CCRF-CEM leukemia, in the experiment with COLO 205 colon, in the experiment with HOP-92 NSCLC, in the experiment on K-562 leukemia, with KM12 colon and in the experiment with MALME-3M melanoma was over 100 µM throughout. Besides, the TGI with NCI-H23 lung, with OVCAR-4 ovarian, with RPMI-8226 leukemia, with RXF 393 renal, in the experiment on SF-295 CNS and in the experiment with SN12C renal was over 100 µM throughout. Further, the TGI was over 100 µM in the experiment with U251 CNS and 89.4 µM in the experiment with UACC-62 melanoma.

`CCN(CC)CC(C(=O)Nc1c(C)cccc1C)/C(C)=N\NC(=O)c1ccncc1` (stereo not given): the TGI in the experiment on COLO 205 colon, with HOP-92 NSCLC, in the experiment on KM12 colon, in the experiment with MALME-3M melanoma, in the experiment with NCI-H23 lung and in the experiment on OVCAR-4 ovarian was over 100 µM each time. The TGI in the experiment with RXF 393 renal, in the experiment on SF-295 CNS, in the experiment on SK-MEL-2 melanoma, with SN12C renal and with U251 CNS was over 100 µM in each case.

Take `Cn1cnc(N2CCCC2)c(C#N)c1=O`: the TGI in the experiment on CCRF-CEM leukemia, with COLO 205 colon, in the experiment with HOP-92 NSCLC, in the experiment on K-562 leukemia, with KM12 colon and in the experiment on MALME-3M melanoma was over 100 µM each time. The TGI with NCI-H23 lung, in the experiment with OVCAR-4 ovarian, in the experiment on PC-3 prostate, in the experiment with RPMI-8226 leukemia, in the experiment with RXF 393 renal and in the experiment on SF-295 CNS was over 100 µM in each case. Besides, the TGI in the experiment on SK-MEL-2 melanoma, with SN12C renal, with T-47D breast, in the experiment with U251 CNS and in the experiment with UACC-62 melanoma was over 100 µM throughout.

As for `c1ccc(C2OCCO2)c(OCCOc2cc(OCCOc3ccccc3C3OCCO3)c(OCCOc3ccccc3C3OCCO3)cc2OCCOc2ccccc2C2OCCO2)c1`, the TGI is over 100 µM in the experiment on CCRF-CEM leukemia; over 100 µM in the experiment on COLO 205 colon; 21 µM in the experiment with HOP-92 NSCLC; over 100 µM in the experiment with K-562 leukemia; over 100 µM in the experiment on KM12 colon; over 100 µM in the experiment on MALME-3M melanoma. Also, the TGI was 27.3 µM in the experiment on NCI-H23 lung; 30.2 µM in the experiment on OVCAR-4 ovarian; over 100 µM in the experiment with RPMI-8226 leukemia; 18.2 µM with RXF 393 renal; over 100 µM in the experiment on SF-295 CNS; 47.9 µM with SK-MEL-2 melanoma. The TGI in the experiment on SN12C renal was over 100 µM; in the experiment on U251 CNS it was 23.9 µM; with UACC-62 melanoma, 37.6 µM.

With `CCC(=O)N(O)C(C)(C)C`, the TGI with CCRF-CEM leukemia, in the experiment on COLO 205 colon, with HOP-92 NSCLC, in the experiment on K-562 leukemia, in the experiment on KM12 colon and in the experiment with MALME-3M melanoma was over 100 µM each time. Moreover, the TGI in the experiment on NCI-H23 lung, with OVCAR-4 ovarian, with RPMI-8226 leukemia, in the experiment on RXF 393 renal, with SF-295 CNS and in the experiment with SN12C renal was over 100 µM throughout. For the same compound, the TGI with U251 CNS and in the experiment on UACC-62 melanoma was over 100 µM in each case.

Regarding `CC(=O)N(CN1C(=O)CCC1C(=O)O)c1cccc(O)c1` (stereo not given), the TGI in the experiment with CCRF-CEM leukemia, in the experiment on COLO 205 colon, in the experiment with HOP-92 NSCLC, in the experiment on K-562 leukemia, in the experiment with KM12 colon and in the experiment on MALME-3M melanoma was over 100 µM throughout. Further, the TGI in the experiment with NCI-H23 lung, with OVCAR-4 ovarian, with PC-3 prostate, with RPMI-8226 leukemia, in the experiment with SF-295 CNS and in the experiment on SK-MEL-2 melanoma was over 100 µM throughout. For the same compound, the TGI in the experiment with SN12C renal, in the experiment on T-47D breast, with U251 CNS and in the experiment on UACC-62 melanoma was over 100 µM in each case.

In the case of `C=C=C(Sc1ccccc1)C(C)(C)OC(C)=O`, the TGI was found to be 58.7 µM in the experiment on CCRF-CEM leukemia; 32.5 µM with COLO 205 colon; 34.2 µM in the experiment with HOP-92 NSCLC; 52 µM in the experiment on K-562 leukemia; 31.4 µM in the experiment on KM12 colon; 35.3 µM in the experiment on MALME-3M melanoma. In addition, the TGI with NCI-H23 lung was 32.9 µM; with OVCAR-4 ovarian, over 100 µM; in the experiment with RPMI-8226 leukemia it was over 100 µM; in the experiment with RXF 393 renal it was 28.4 µM; with SF-295 CNS it was 33.6 µM; in the experiment with SK-MEL-2 melanoma, 35 µM. Besides, the figures for the TGI in the experiment with SN12C renal, in the experiment on U251 CNS and with UACC-62 melanoma were 31.1 µM, 31.6 µM and 29.2 µM, respectively.
